Some test systems named below: SK-MEL-28 melanoma; MDA-MB-435; HT29 colon; T-47D breast; OVCAR-3 ovarian; DU-145 prostate; PC-3 prostate; HOP-62 NSCLC; RPMI-8226 leukemia; HCC-2998 colon.
Experiment in all cases: NCI-60 cell line screen, 48 h

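Step 1: Grow cells in 96-well plates. Step 2: Expose to compound for 48 hours at 5 concentrations. Step 3: Interpolate endpoints linearly; if unreached, use highest concentration. Here, GI50 denotes the concentration required for 50% inhibition of growth. TGI is the concentration that stops growth completely.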

Turning to `CCC(=O)N1C/C(=C/c2ccc(Cl)cc2)C(=O)/C(=C/c2ccc(Cl)cc2)C1`, the GI50 was 1.71 µM with SK-MEL-28 melanoma; 0.403 µM in the assay on MDA-MB-435; 0.248 µM with HT29 colon; 1.38 µM in the assay on T-47D breast; 0.622 µM with OVCAR-3 ovarian; 1.13 µM with DU-145 prostate. Also, the GI50 in the assay with PC-3 prostate was 0.464 µM; in the assay on HOP-62 NSCLC, 0.499 µM; with RPMI-8226 leukemia it was 0.101 µM; in the assay with HCC-2998 colon it was 0.735 µM. In addition, the TGI with SK-MEL-28 melanoma is 3.33 µM; in the assay with MDA-MB-435, 1.64 µM; in the assay with HT29 colon, 0.622 µM; in the assay with T-47D breast it was 3.27 µM; in the assay on OVCAR-3 ovarian, 1.75 µM; with DU-145 prostate it was 2.65 µM. Besides, the TGI with PC-3 prostate is 2.4 µM; in the assay on HOP-62 NSCLC it was 1.53 µM; in the assay with RPMI-8226 leukemia it was 0.911 µM; with HCC-2998 colon it was 1.82 µM.

On to `CC1=CC2C(C(O)CC3(C)C2CC(C)C32OCOC23COCO3)C2(C)C/C(=C/O)C(=O)C=C12` (stereo not given), for which the GI50 in the assay with SK-MEL-28 melanoma is 1.87 µM; with MDA-MB-435, 1.78 µM; in the assay with HT29 colon it was 1.79 µM; in the assay with T-47D breast, 2.33 µM; in the assay on OVCAR-3 ovarian, 2.05 µM; in the assay with DU-145 prostate it was 2.57 µM. For the same compound, the GI50 in the assay on PC-3 prostate is 1.71 µM; in the assay with HOP-62 NSCLC, 1.99 µM; in the assay with RPMI-8226 leukemia, 1.84 µM; in the assay with HCC-2998 colon, 1.91 µM. Besides, the TGI came out at 3.51 µM in the assay with SK-MEL-28 melanoma; 3.64 µM in the assay with MDA-MB-435; 5.01 µM in the assay with HT29 colon; 5.73 µM in the assay with T-47D breast; 3.59 µM in the assay on OVCAR-3 ovarian; 5.81 µM with DU-145 prostate. In addition, the TGI in the assay with PC-3 prostate amounted to 4.4 µM; in the assay on HOP-62 NSCLC, 3.52 µM; in the assay with RPMI-8226 leukemia, 5.15 µM; with HCC-2998 colon, 3.38 µM.

For the compound `Fc1ccc(-c2ncn(C3CCNCC3)c2-c2ccnc(Oc3ccc4c(c3)OCO4)n2)cc1`, the GI50 was 8.34 µM in the assay with SK-MEL-28 melanoma; > 19.5 µM in the assay with MDA-MB-435; 9.62 µM in the assay with HT29 colon; 12.7 µM in the assay with T-47D breast; > 25 µM in the assay on OVCAR-3 ovarian; > 25 µM with DU-145 prostate. For the same compound, the GI50 with PC-3 prostate was > 25 µM; in the assay on HOP-62 NSCLC, > 25 µM; in the assay on RPMI-8226 leukemia, > 25 µM; with HCC-2998 colon, 11.9 µM. Besides, the TGI in the assay with SK-MEL-28 melanoma is > 23.1 µM; in the assay with MDA-MB-435, > 25 µM; with HT29 colon, > 25 µM; in the assay on T-47D breast it was > 25 µM; in the assay on OVCAR-3 ovarian it was > 25 µM; with DU-145 prostate, > 25 µM. Further, the TGI in the assay on PC-3 prostate, in the assay with HOP-62 NSCLC, in the assay with RPMI-8226 leukemia and with HCC-2998 colon was > 25 µM each time.

With `CCCCCCCCCCCC1=NC(C)(C)CN1C(C)(C)CO`, the GI50 in the assay on SK-MEL-28 melanoma was 1.83 µM; in the assay with MDA-MB-435, 1.73 µM; in the assay on HT29 colon it was 1.92 µM; in the assay on T-47D breast, 2.05 µM; in the assay on OVCAR-3 ovarian, 2.05 µM; with DU-145 prostate, 3.12 µM. Further, the GI50 in the assay with PC-3 prostate is 3.11 µM; in the assay with HOP-62 NSCLC, 2.72 µM; with RPMI-8226 leukemia, 2.49 µM; in the assay on HCC-2998 colon it was 1.75 µM. In addition, the TGI with SK-MEL-28 melanoma turned out to be 3.41 µM; in the assay on MDA-MB-435, 3.5 µM; with HT29 colon, 4.1 µM; with T-47D breast it was 5.31 µM; with OVCAR-3 ovarian it was 6.2 µM; in the assay on DU-145 prostate, 15.3 µM. Also, the TGI in the assay on PC-3 prostate worked out at 12.8 µM; in the assay with HOP-62 NSCLC, 9.53 µM; in the assay with RPMI-8226 leukemia, 5.83 µM; with HCC-2998 colon, 3.24 µM.

`CCOC(=O)N1C/C(=C\c2ccccc2)C(=O)/C(=C/c2ccccc2)C1`: the TGI in the assay with SK-MEL-28 melanoma was 6.69 µM; in the assay with MDA-MB-435 it was 5.8 µM; in the assay with HT29 colon, 4.05 µM; with T-47D breast, > 31.6 µM; in the assay with OVCAR-3 ovarian it was 14.5 µM; in the assay on DU-145 prostate, > 55.8 µM. Besides, the TGI came to 5.16 µM in the assay with PC-3 prostate, 24.8 µM in the assay with HOP-62 NSCLC, 1.77 µM with RPMI-8226 leukemia and 4.8 µM with HCC-2998 colon.

Take `c1ccc(-c2nn3c(c2-c2ccnc4cc(OCCN5CCOCC5)ccc24)CCC3)nc1`: the GI50 is > 100 µM in the assay on SK-MEL-28 melanoma; 25.8 µM with MDA-MB-435; 30.3 µM in the assay on HT29 colon; > 100 µM with T-47D breast; > 69.9 µM in the assay on OVCAR-3 ovarian; 75.2 µM with DU-145 prostate. Besides, the GI50 was 98.8 µM in the assay on PC-3 prostate, 99.4 µM in the assay on HOP-62 NSCLC, 53.7 µM in the assay with RPMI-8226 leukemia and > 100 µM in the assay with HCC-2998 colon. Also, the TGI in the assay with SK-MEL-28 melanoma, in the assay on MDA-MB-435, with HT29 colon, in the assay on T-47D breast, in the assay with OVCAR-3 ovarian and with DU-145 prostate was > 100 µM throughout. Further, the TGI in the assay with PC-3 prostate, with HOP-62 NSCLC, in the assay on RPMI-8226 leukemia and in the assay with HCC-2998 colon was > 100 µM in each case.

As for `COc1ccc2c(c1)[n+](=O)c(C(=O)c1cccs1)c(C(F)(F)F)n2[O-]`, the GI50 in the assay with SK-MEL-28 melanoma is 16.3 µM; with MDA-MB-435, 12.2 µM; with HT29 colon it was 8.65 µM; in the assay on T-47D breast, 5.26 µM; in the assay on OVCAR-3 ovarian it was 2.09 µM; in the assay on DU-145 prostate, 2.57 µM. In addition, the GI50 is 2.42 µM in the assay with PC-3 prostate, 12.1 µM with HOP-62 NSCLC, 3.41 µM in the assay on RPMI-8226 leukemia and 4.72 µM in the assay on HCC-2998 colon. The TGI was > 50 µM with SK-MEL-28 melanoma; > 50 µM with MDA-MB-435; > 50 µM in the assay with HT29 colon; 29.8 µM in the assay on T-47D breast; 11.3 µM in the assay with OVCAR-3 ovarian; 12.7 µM with DU-145 prostate. The TGI in the assay on PC-3 prostate is 18.6 µM; in the assay with HOP-62 NSCLC it was > 50 µM; with RPMI-8226 leukemia it was > 50 µM; in the assay with HCC-2998 colon, 22.7 µM.

The values above are taken from PubChem BioAssay (NCI).
